Assay results as given in patent publication US5770604A, “Aconitine compound and an antipyretic/analgesic/anti-inflammatory agent” (priority 1994, dated 1998).

Key:
[1] = cited from earlier work; for analgesic activity, in words: compared to morphine
[2] = test system: carrageenin-induced paw edema; experiment: Antiinflammatory activity by the carrageenin-induced hind paw edema; assay type: in vivo, mice (Std:ddY, male); details: mouse, 30 mg/kg p.o., mean ± standard error, n = 6
Procedure: Measurement of Antiinflammatory Activity by the Carrageenin-Induced Hind Paw Edema
Std:ddY Strain male mice (20-25 g) were fasted for one day before the experiment, and were used. After test compounds shown in Table 1 was formed to a salt with tartaric acid, this salt was dissolved in sterilized and distilled water at the rate of 30 mg/10 ml to give the test compound solution. As a control, sterilized and distilled water was used. One hour after the oral administration of test compound solutions, 25 μl of λ-carrageenin suspended in 0.9% physiological saline solution (0.5 mg/25 μl) was injected s.c. under the plantar surface of the right hind paw of a mouse and 25 μl of 0.9% physiological saline solution was injected s.c. under the plantar surface of the left hind paw of the same mouse. Three hours and five hours after carrageenin injection, the […] of the paw was measured with a dial gauge calliper. To the control group, One hour after the oral administration of sterilized and distilled water at the rate of 10 ml/kg, 25 μl of λ-carrageenin (0.5 mg/25 μl) suspended in 0.9% physiological saline solution was injected s.c. under the plantar surface of the right hind paw of a mouse and 25 μl of 0.9% physiological saline solution was injected s.c. under the plantar surface of the left hind paw of the same mouse and the later operation was done in the same manner as in the test compound dosing group mentioned above. The results were described as a swelling rate (%) obtained from the following equation.
Swelling rate (%)=(R-L)×100/L
R: the thickness of the right hind paw
L: the thickness of the left hind paw

[3] = test system: pain threshold (tail-pressure); experiment: Analgesic activity by the tail-pressure method (s.c.); assay type: in vivo, mice (Std:ddY, male); details: mouse, 10 mg/10 ml at 10 ml/kg s.c., 1 hour after administration, mean ± standard error
Procedure: (1) Measurement of Analgesic Activity by the Tail-Pressure Method
Std:ddY Strain male mice (20-25 g) were fasted for one day before the experiment, and were used. After test compounds shown in Table 1 was formed to a salt with tartaric acid, this salt was dissolved in 0.9% physiological saline solutions at the rate of 10 mg/10 ml to give the test compoun d solution . As a control, 0.9% physiological saline solution was used. A tail-pressure apparatus was used in this experiments. Before the administration of test compounds, the pain threshold was measured twice at intervals of 30 minutes and those mice indicating a pain threshold of 50 to 100 mmHg were selected and used. The pain threshold of each mouse was measured at 1 hour after test compound solution mentioned above was administered at 10 ml/kg, s.c. 0.9% Physiological saline solution as a control was administered at 10 ml/kg, s.c . The results were described as an inhibition rate (%) obtained from the following equation. Cutoff level of pressure was defined to be 230 mmHg for the prevention of the damage of mouse tail.
Inhibition rate (%)=(A-B)×100/(C-B)
A: Pain threshold (mmHg) after the administration of test compound solution
B: Pain threshold (mmHg) before the administration of test compound solution
C: Cutoff pressure (230 mmHg)

[4] = test system: nociceptive response (licking); experiment: Analgesic activity by the hot-plate method; assay type: in vivo, mice (Std:ddY, male); details: mouse, 52° C. plate, solution 10 mg/10 ml, mean ± standard error
Procedure: Measurement of Analgesic Activity by the Hot-Plate Method
Std:ddY Strain male mice (20-25 g) were fasted for one day before the experiment, and were used. After compounds shown in Table 1 were formed to the tartaric acid salts, these compounds were dissolved in 0.9% physiologocal saline solution at the rate of 10 mg/10 ml, respectively and these solution were used as test compound solution. In a control, 0.9% physiological saline solution was used. Mice were placed on a cyrindric hot plate (diameter: 22 cm, height: 11 cm) made of copper which was fixed in a water bath adjusted to 52° C. so that each animal's four paws came into contact with the plate and the time taken to show the nociceptive response (licking) as an index of pain was measured. Mice showing response latency above 25 seconds were excluded from the experiment. To prevent a burn damage of mouse tissue by heating, cutoff time of 50 seconds was defined. The results were described as an inhibition rate (%) obtained from the following equation.
Inhibition rate (%)=(A-B)×100/(50-B)
A: Response latency (seconds) after the administration of test compound solution
B: Response latency (seconds) before the administration of test compound solution

[5] = test system: yeast-induced fever; experiment: Antipyretic activity on yeast-induced fever in rats; assay type: in vivo, rats (Wistar, male); details: rat, 2 hours after administration
Procedure: Measurement of Antipyretic Activity on Yeast-Induced Fever in Rats
Wistar Strain male rats (150-190 g) were fasted for one day before the experiment, and were used. Compounds of number (1) and (2) in Table 1 were formed to the tartaric acid salt and these salts were dissolved in 0.9% physiological saline solution at the rate of 10 mg/10 ml and these solution were used as test compound solution. In a control, 0.9% physiological saline solution was used. After rat rectal temperature was measured, 1 ml/100 g of body weight of 7.5% yeast/0.9% physiological saline solution was injected s.c. at dorsal position. Then, rat rectal temperature was measured at 4 hour after the injection of yeast and rats showing the increase rectal temperature by 1 degree or more were selected and used. Test compound solution was administered s.c. at 5 hours after the injection of yeast. The rectal temperature was measured 2 hours after the administration of test compound solution. The results were described with the difference between the rectal temperature before and after the administration of test compound solution.

Row | Compound | analgesic/anti-inflammatory activity relative to earlier compounds, in words ([1]; JP, A, H5-17448) | Swelling rate ([2]; 3 hour) | Swelling rate ([2]; 5 hour) | Inhibition rate (tail-pressure method) [3] | Inhibition rate (hot-plate method) [4] | analgesic activity, in words [1] | activity in tail pressure methods and hot plate methods, in words [1] | Change of rectal temperature ([5]; 1 mg/kg s.c.) | Change of rectal temperature ([5]; 3 mg/kg s.c.) | Change of rectal temperature ([5]; 10 mg/kg s.c.)
1 | CCN1CC2(COC)C(O)CC(OC)C34C5CC6(O)C(OC)C(O)C(O)(C5C6OC(=O)c5ccc(Cl)cc5)C(C(OC)C23)C14 (stereo not shown) [14-O-p-chlorobenzoylaconine, reference compound] | exhibits activity superior to that of compounds having a p-chlorobenzoyloxy group bonded to the position 14 carbon atom of the aconitine chemical structure | 57 ± 8% | 63 ± 9% | 10 ± 4% | 17 ± 7% | – | – | – | – | –
2 | COc1ccc2c(c1)c(CC(=O)O)c(C)n2C(=O)c1ccc(Cl)cc1 [indomethacin] | – | – | – | – | – | weak analgesic activity compared to morphine | no remarkable activity in tail pressure methods and hot plate methods | – | – | –
3 | COCC12CN(C)C3C4C(OC)C1C3(C(OC)CC2O)C1CC2(O)C(OC)C(OC(C)=O)C4(O)C1C2OC(=O)c1ccc(Cl)cc1 (stereo not shown) [(1), 15-O-acetyl-14-O-p-chlorobenzoylmesaconine] | – | 49 ± 2% | 52 ± 6% | 48 ± 12% | 52 ± 12% | – | – | 1.3 ± 0.1 °C | 0.2 ± 0.1 °C | 0.2 ± 0.2 °C
4 | CCCN1CC2(COC)C(O)CC(OC)C34C5CC6(O)C(OC)C(OC(C)=O)C(O)(C5C6OC(=O)c5ccc(Cl)cc5)C(C(OC)C23)C14 (stereo not shown) [(3), de-N-ethyl-N-propyl-15-O-acetyl-14-O-p-chlorobenzoylaconine] | – | 42 ± 10% | 54 ± 8% | 36 ± 10% | 39 ± 11% | – | – | – | – | –
5 | CC(=O)Oc1ccccc1C(=O)O [aspirin] | – | – | – | – | – | weak analgesic activity compared to morphine | no remarkable activity in tail pressure methods and hot plate methods | – | – | –
6 | COCC12CN(C)C3C4C(OC)C1C3(C(OC)CC2OC(C)=O)C1CC2(O)C(OC)C(OC(C)=O)C4(O)C1C2OC(=O)c1ccc(Cl)cc1 (stereo not shown) [(5), 3,15-di-O-acetyl-14-O-p-chlorobenzoylmesaconine] | – | 43 ± 10% | 58 ± 10% | 40 ± 10% | 37 ± 10% | – | – | – | – | –
7 | de-N-ethyl-N-propyl-15-O-acetyl-8-deoxy-16-epi-14-O-p-chlorobenzoylaconine [(11)] | – | 50 ± 5% | 52 ± 9% | 25 ± 8% | 34 ± 9% | – | – | – | – | –
8 | 15-O-acetyl-8-deoxy-16-epi-14-O-p-chlorobenzoylmesaconine [(9)] | – | 44 ± 7% | 56 ± 7% | 31 ± 12% | 46 ± 7% | – | – | – | – | –
9 | CCN1CC2(COC)C(OC(C)=O)CC(OC)C34C5CC6(O)C(OC)C(OC(C)=O)C(O)(C5C6OC(=O)c5ccc(Cl)cc5)C(C(OC)C23)C14 (stereo not shown) [(4), 3,15-di-O-acetyl-14-O-p-chlorobenzoylaconine] | – | 50 ± 7% | 55 ± 9% | 29 ± 8% | 35 ± 9% | – | – | – | – | –
10 | 15-O-acetyl-8-deoxy-16-epi-14-O-p-chlorobenzoylaconine [(10)] | – | 49 ± 6% | 49 ± 11% | 23 ± 7% | 40 ± 10% | – | – | – | – | –
